Test results reported in patent EP0642343B1, “Acridine carboxamides for the treatment of cancer” (XENOVA LIMITED, priority 1992, dated 1993).
“And” between values parts separate entries of the source, which are not always exact repeats. Identical values can stand only once.

Experiments:
Raji = test: Growth inhibition of leukaemia line, continuous exposure, MTT staining; assay type: cell-based; details: Homo sapiens
Method: (§1) Tumour cell lines were cultured in 96-well plates. […] Primary cultures were incubated at 37°C in sealed perspex boxes containing a humidified atmosphere of 5% CO2 and 5% O2 in nitrogen for 7 days. 5-Methyl-[^3H]-thymidine (20 Ci.mmol^-1; 0.04 µCi per well), thymidine and 5-fluorodeoxyuridine (each at final concentrations of 0.5 µM) were added in medium to cultures (20 µl per well) 24 h before terminating the cultures.
(§2) 1989, 81:1088-1092, where growth, as indicated by staining or thymidine incorporation, corresponded to 50% of that of the control cultures.
(§3) The effect of DACA on the growth of cultured cells was assessed by continuous drug exposure. […] These values were similar to those of other human leukaemia cell lines, which ranged from 290 to 760 nM (CEM-CCRF, 410 nM; MOLT-4, 290 nM; Daudi, 400 nM; Raji, 370 nM, U937, 590 nM; HL-60, 620 nM; K-562, 760 nM). Four multidrug-resistant cell lines, developed from JL and JB1 by in vitro exposure to increasing concentrations of doxorubicin (LD and B1D) or amsacrine (LA and B1A) (Finlay G.J., et al., J. Natl. Cancer Inst. 1990, 82, 662-667, Snow K., et al., Br. J. Cancer 1991, 63, 17-28) were tested.

K-562 = test: as above; assay type: cell-based; details: Homo sapiens, K562
Method: as §1, §2, §3

MOLT-4 = test: as above; assay type: cell-based; details: Homo sapiens
Method: as §1, §2, §3

HL-60 = test: as above; assay type: cell-based; details: Homo sapiens
Method: as §1, §2, §3

[1] = test system: human Jurkat T cell leukaemia line, diploid (L); test: as above; assay type: cell-based; details: continuous drug exposure
Method: as §1, §2, §3

Daudi = test: as above; assay type: cell-based; details: Homo sapiens
Method: as §1, §2, §3

[2] = test system: human Jurkat T cell leukaemia line, tetraploid (B1); test: as above; assay type: cell-based; details: continuous drug exposure
Method: as §1, §2, §3

CEM-CCRF = test: as above; assay type: cell-based; details: Homo sapiens
Method: as §1, §2, §3

U937 = test: as above; assay type: cell-based; details: Homo sapiens, U-937
Method: as §1, §2, §3

[3] = test system: advanced colon 38 tumours; test: Tumour growth delay, advanced subcutaneous colon 38 tumours in mice; assay type: in vivo
Method: Colon 38 carcinoma was obtained from the Mason Research Institute (Worchester, MA, USA) and was grown in BDF1 hosts. Tumour fragments (1 mm^3) were implanted subcutaneously in anaesthetised mice. Tumours had grown to the appropriate size 9 days after implantation. A melanoma tumour line (WADH) was developed in the Cancer Research Laboratory. Tumour cells were grown in culture and 1 x 10^6 cells were implanted intradermally into the flank of nude (C57BI/J genetic background) mice. Mice were grown under sterile surroundings until tumours were of appropriate size.
Tumours were measured 3x (colon 38) or 2x (xeno-graft) weekly with callipers and tumour volumes calculated as 0.52a^2b, where a and b were the minor and major tumour axes. Tumour growth delays were measured at a time when tumour volumes of treated and control animals had increased by 4-fold.
The effects of five compounds, • (i) DACA • (ii) N-[2-(dimethylamino)ethyl]-9-methoxyphen-azine-1-carboxamide (compound 28 of J. Med. Chem., 1987, 30, 843-851), • (iii) N-[2-(dimethylamino) ethyl]-2-phenylquino-line-8-carboxamide (compound 6 of J. Med. Chem. 1988, 31, 1048-1052), • (iv) N-[2-(dimethylamino)ethyl]-2-(4-pyridyl)-guinoline-8-carboxamide (compound 18 of J. Med. Chem., 1989, 32, 396-401), and • (v) N-[2-(dimethylamino)ethyl]-9-bromo-dibenzo-[1,4]-dioxin-1-carboxamide (compound 20 of J. Med. Chem. 1992, 35, 258-266) on the growth of advanced colon 38 tumours in mice was investigated by implanting tumour fragments subcutaneously and allowing them to grow until they had reached a diameter of 5-8 mm.

CN(C)CCNC(=O)c1cccc2cc3ccccc3nc12 [DACA, N-[2-(dimethylamino)ethyl]acridine-4-carboxamide]
IC50 (Raji): 370 nM
IC50 (K-562): 760 nM
IC50 (MOLT-4): 290 nM
IC50 (HL-60): 620 nM
IC50 [1]: 380 nM
IC50 (Daudi): 400 nM
IC50 [2]: 380 nM
IC50 (CEM-CCRF): 410 nM
IC50 (U937): 590 nM
Growth delay ([3]; 100mg/kg each injection, ip, 2 doses, 0, 60 min, listed as (i)): 10 days and 12 days
Growth delay ([3]; 4 injections at 30 minute intervals, 180 + 120 + 120 + 120 µmol/kg, q7 days x 3): 21 days
Growth delay ([3]; day 11 after implantation, 3 injections at 4-day intervals): 4 days
Growth delay ([3]; i.p. single maximum tolerated dose 150 mg/kg body weight, Figure 5): 5 days
Growth delay ([3]; repetition of divided doses (200 mg/kg), Figure 5): 23 days
Growth delay ([3]; total dose 100 (mg/kg) ip, single dose (SD)): 4 days
Growth delay ([3]; total dose 150 ip, 2 doses, 0, 60 min): 5 days
Growth delay ([3]; total dose 150 ip, SD): 5 days
Growth delay ([3]; total dose 150x3 ip, SD every week x 3): 7 days
Growth delay ([3]; total dose 200 ip, 2 doses, 0, 30 min): 7 days
Growth delay ([3]; total dose 200 ip, 2 doses, 0, 60 min (2 expts)): 10 days and 12 days
Growth delay ([3]; total dose 200 ip, 2 doses, 0, 24 hours): 6 days
Growth delay ([3]; total dose 200 ip, 4 doses, 0, 30, 60, 90 min (65 + 45 + 45 + 45 mg/kg)): 6 days
Growth delay (days) ([3]; total dose 200 ip, SD): toxic
Growth delay ([3]; total dose 200 iv, 1 hour infusion): 7 days
Growth delay ([3]; total dose 200 iv, 3 hour infusion): 6.5 days
Growth delay ([3]; total dose 200x3 ip, (4 doses, 0, 30, 60, 90)x3): 23 days
Growth delay ([3]; tumour 5-8 mm, after adjustment of the administration schedule): more than 21 days
Growth delay ([3]; tumour 5-8 mm, intermittent schedule 270 mg/kg q7 days x 3): 3 days
Growth delay ([3]; tumour 5-8 mm, intermittent schedule 400 mg/kg q7 days x 3): 7 days
